Experimental data published in patent publication US20070292908A1, “Method for Detecting Streptococcus Agalactiae Using Alpha-Glucosidase Activity” (BIOMERIEUX, priority 2004, published 2007).

Legend:
[1] = test system: Streptococcus agalactiae; experiment: Detection of Streptococcus agalactiae strains on reaction media containing an α-glucosidase enzymatic substrate; type: cell-based; conditions: substrate 0.1 g/l; for intensity (I) of coloration: arbitrary scale 0 to 4
Description: The reaction media were prepared by mixing heart-brain extract (4.84 g/l; Solabia), meat infusion (1.96 g/l; Solabia), biothione (1 g/l; Solabia), biotrypcase (7.2 g/l; Solabia), sodium carbonate (0.3 g/l; VWR), sodium pyruvate (2 g/l; Fluka), HEPES buffer (0.4 g/l; Sigma), lactalbumin peptone (2 g/l; DMV), glucose (1 g/l; Merck), American agar (2 g/l; Sobigel) and European agar (12 g/l; Roko).
The media were then poured into a Petri dish for subsequent inoculation with bacterial strains.
Eight Streptococcus agalactiae strains derived from the applicant's collection, suspended in physiological saline, were inoculated so as to give isolated colonies on each of the media. The dishes were then incubated at 37° C. for 48 hours. The colonies formed are examined visually after 18, 24 and more than 40 hours of incubation. The coloration of these colonies, the growth and also the intensity of this coloration were noted.
The results are given in table 1 below and are expressed: • in terms of growth (G) with the size being indicated in mm, • in terms of intensity (1) of coloration based on an arbitrary scale ranging from 0 to 4, 0 corresponding to an absence of activity and 4 corresponding to the presence of a very intense coloration, • in terms of color (Co) with T=turquoise, R=pink or red, Gr=green, Mg=magenta, • according to the incubation time in hours (T).

[2] = test system: Streptococcus agalactiae; experiment: Number of strains detected as a function of the concentration of α-glucosidase substrate; type: cell-based; conditions: positive when I≧0.6, 8 strains
Text: The above protocol was repeated, with the exception that the concentration of enzymatic substrate was varied.
Table 2 below gives the number of strains detected (considered to be positive when I≧0.6) as a function of the concentration of substrate.

[3] = strain 0008200, 18 h incubation
[4] = strain 0008200, 24 h incubation
[5] = strain 0008200, >40 h incubation
[6] = strain 0008206, 18 h incubation
[7] = strain 0008206, 24 h incubation
[8] = strain 0008206, >40 h incubation
[9] = strain 0101060, 18 h incubation
[10] = strain 0101060, 24 h incubation
[11] = strain 0101060, >40 h incubation
[12] = strain 7611003, 18 h incubation
[13] = strain 7611003, 24 h incubation
[14] = strain 7611003, >40 h incubation
[15] = strain 7701031, 18 h incubation
[16] = strain 7701031, 24 h incubation
[17] = strain 7701031, >40 h incubation
[18] = strain 7702055, 18 h incubation
[19] = strain 7702055, 24 h incubation
[20] = strain 7702055, >40 h incubation
[21] = strain 8709013, 18 h incubation
[22] = strain 8709013, 24 h incubation
[23] = strain 8709013, >40 h incubation
[24] = strain 8904053, 18 h incubation
[25] = strain 8904053, 24 h incubation
[26] = strain 8904053, >40 h incubation
[27] = substrate 100 mg/l, incubation 24 h
[28] = substrate 100 mg/l, incubation 48 h
[29] = substrate 200 mg/l, incubation 24 h
[30] = substrate 200 mg/l, incubation 48 h
[31] = substrate 300 mg/l, incubation 24 h
[32] = substrate 300 mg/l, incubation 48 h

5-bromo-4-chloro-3-indolyl-α-D-glucopyranoside [X-alpha-Glu]
intensity (I) of coloration ([1]; strain 0008200, 18 h): 0.3
growth (G), size [1, 3]: 0.7 mm
intensity (I) of coloration ([1]; strain 0008200, 24 h): 0.6
growth (G), size [1, 4]: 0.7 mm
intensity (I) of coloration ([1]; strain 0008200, >40 h): 2.3
growth (G), size [1, 5]: 0.8 mm
intensity (I) of coloration ([1]; strain 0008206, 18 h): 0.3
growth (G), size [1, 6]: 0.7 mm
intensity (I) of coloration ([1]; strain 0008206, 24 h): 1
growth (G), size [1, 7]: 0.7 mm
intensity (I) of coloration ([1]; strain 0008206, >40 h): 2
growth (G), size [1, 8]: 0.8 mm
intensity (I) of coloration ([1]; strain 0101060, 18 h): 2.7
growth (G), size [1, 9]: 0.4 mm
intensity (I) of coloration ([1]; strain 0101060, 24 h): 3
growth (G), size [1, 10]: 0.5 mm
intensity (I) of coloration ([1]; strain 0101060, >40 h): 4
growth (G), size [1, 11]: 0.7 mm
intensity (I) of coloration ([1]; strain 7611003, 18 h): 2.3
growth (G), size [1, 12]: 1 mm
intensity (I) of coloration ([1]; strain 7611003, 24 h): 2.7
growth (G), size [1, 13]: 1.2 mm
intensity (I) of coloration ([1]; strain 7611003, >40 h): 3
growth (G), size [1, 14]: 1.5 mm
growth (G), size [1, 15]: 0.5 mm
growth (G), size [1, 16]: 0.7 mm
growth (G), size [1, 17]: 1.2 mm
intensity (I) of coloration ([1]; strain 7702055, 18 h): 0.5
growth (G), size [1, 18]: 0.7 mm
intensity (I) of coloration ([1]; strain 7702055, 24 h): 1
growth (G), size [1, 19]: 1 mm
intensity (I) of coloration ([1]; strain 7702055, >40 h): 3
growth (G), size [1, 20]: 1.7 mm
intensity (I) of coloration ([1]; strain 8709013, 18 h): 0.1
growth (G), size [1, 21]: 0.4 mm
intensity (I) of coloration ([1]; strain 8709013, 24 h): 0.6
growth (G), size [1, 22]: 0.5 mm
intensity (I) of coloration ([1]; strain 8709013, >40 h): 2
growth (G), size [1, 23]: 0.7 mm
intensity (I) of coloration ([1]; strain 8904053, 18 h): 0.3
growth (G), size [1, 24]: 0.7 mm
intensity (I) of coloration ([1]; strain 8904053, 24 h): 0.6
growth (G), size [1, 25]: 0.7 mm
intensity (I) of coloration ([1]; strain 8904053, >40 h): 2.3
growth (G), size [1, 26]: 0.8 mm
number of strains detected [2, 27]: 3/8
number of strains detected [2, 28]: 7/8
number of strains detected [2, 29]: 7/8
number of strains detected [2, 30]: 7/8
number of strains detected [2, 31]: 7/8
number of strains detected [2, 32]: 7/8

5-bromo-4-chloro-3-indolyl-N-methyl-α-D-glucopyranoside [GreenA-alpha-Glu]
intensity (I) of coloration ([1]; strain 0008200, 18 h): 0.5
growth (G), size [1, 3]: 0.7 mm
intensity (I) of coloration ([1]; strain 0008200, 24 h): 0.8
growth (G), size [1, 4]: 0.7 mm
intensity (I) of coloration ([1]; strain 0008200, >40 h): 2
growth (G), size [1, 5]: 0.7 mm
intensity (I) of coloration ([1]; strain 0008206, 18 h): 0.6
growth (G), size [1, 6]: 0.7 mm
intensity (I) of coloration ([1]; strain 0008206, 24 h): 1
growth (G), size [1, 7]: 0.7 mm
intensity (I) of coloration ([1]; strain 0008206, >40 h): 2
growth (G), size [1, 8]: 0.8 mm
intensity (I) of coloration ([1]; strain 0101060, 18 h): 0.8
growth (G), size [1, 9]: 0.3 mm
intensity (I) of coloration ([1]; strain 0101060, 24 h): 1.7
growth (G), size [1, 10]: 0.4 mm
intensity (I) of coloration ([1]; strain 0101060, >40 h): 3.5
growth (G), size [1, 11]: 0.5 mm
intensity (I) of coloration ([1]; strain 7611003, 18 h): 2
growth (G), size [1, 12]: 1 mm
intensity (I) of coloration ([1]; strain 7611003, 24 h): 2
growth (G), size [1, 13]: 1.3 mm
intensity (I) of coloration ([1]; strain 7611003, >40 h): 3
growth (G), size [1, 14]: 1.7 mm
growth (G), size [1, 15]: 0.5 mm
intensity (I) of coloration ([1]; strain 7701031, 24 h): 0.3
growth (G), size [1, 16]: 0.7 mm
intensity (I) of coloration ([1]; strain 7701031, >40 h): 0.8
growth (G), size [1, 17]: 1.5 mm
intensity (I) of coloration ([1]; strain 7702055, 18 h): 1
growth (G), size [1, 18]: 0.7 mm
intensity (I) of coloration ([1]; strain 7702055, 24 h): 2
growth (G), size [1, 19]: 0.8 mm
intensity (I) of coloration ([1]; strain 7702055, >40 h): 3
growth (G), size [1, 20]: 1.7 mm
intensity (I) of coloration ([1]; strain 8709013, 18 h): 0.5
growth (G), size [1, 21]: 0.4 mm
intensity (I) of coloration ([1]; strain 8709013, 24 h): 1
growth (G), size [1, 22]: 0.5 mm
intensity (I) of coloration ([1]; strain 8709013, >40 h): 2.7
growth (G), size [1, 23]: 0.7 mm
intensity (I) of coloration ([1]; strain 8904053, 18 h): 0.5
growth (G), size [1, 24]: 0.7 mm
intensity (I) of coloration ([1]; strain 8904053, 24 h): 0.8
growth (G), size [1, 25]: 0.7 mm
intensity (I) of coloration ([1]; strain 8904053, >40 h): 2.3
growth (G), size [1, 26]: 1 mm
number of strains detected [2, 27]: 6/8
number of strains detected [2, 28]: 8/8
number of strains detected [2, 29]: 7/8
number of strains detected [2, 30]: 8/8
number of strains detected [2, 31]: 7/8
number of strains detected [2, 32]: 7/8
